Results published in patent US11524950B2, “Treatment of immune-related and inflammatory diseases” (Celgene Corporation, priority 2012, dated 2022).
Like-named read-outs stand apart in the source and are kept apart here.

Columns and labels:
[1] = system: BCL-6, IRF-4, BLIMP-1, PAX5 and XBP-1; assay: Transcription factor protein expression by intracellular flow cytometry, normal B cell differentiation; type: cell-based, human
Description: (§1) Immunophenotyping For Flow Cytometric Analysis: Cells were stained using multicolor direct immunofluorescence stain for flow cytometric analysis. Surface staining was performed before cell fixation and permeabilization. Cells (50 μl; 1×10^6 cells/ml in washing buffer, 2% FBS with 0.1% NaN3 in PBS) were used for each staining. The cells were stained with isotype control mAb ([…]) and multicolor FITC-conjugated anti-CD20 mAb and PE-conjugated anti-CD38 mAb, or PerCP-Cy5.5 conjugated anti-CD44 mAb, PE-conjugated anti-CD83 mAb were used for day 4 activated B cells (CD20+CD38-cells), and day 4 PBs and day 7 PBs (CD20-CD38+), and other staining, analyzed by flow cytometry as per manufacturer's instructions. The intracellular staining of transcription factor proteins (BCL-6, IRF-4, BLIMP-1, PAX-5 and XBP-1) and IgJ was performed according to the manufacturer's recommendations. Flow cytometric analysis was performed with a FACSCanto using FACSDiva 6 (BD Biosciences). For data analysis, Flowjo (Tree Star) software was used.
B cells were cultured as described in above and cells were harvested at day 4, day 7 for immunofluoresence staining. The cells were first stained for CD20 and CD38, and after cell permeabilization, stained for BCL-6, IRF-4, BLIMP-1, PAX5 and XBP-1, then were analyzed by gating on whole lymphocytes.

[2] = system: BLIMP-1, XBP-1, and IgJ; assay: Plasmablast lineage factor gene expression (qRT-PCR), SLE patient PBMC; type: cell-based, human; settings: 20 nM, n=3
[3] = system: IL-2; assay: T-cell costimulation: IL-2 production (immobilized anti-CD3, ELISA); type: cell-based; settings: Homo sapiens, 48 h, immobilized anti-CD3, 2 days, read-out: EC50 for co-stimulated IL-2 production by T cells
Description: CRBN ubiquitination was measured in HEK293T cells, which were transfected with an amino-terminal His-biotin-tagged CRBN construct, then preincubated with compounds for one hour followed by treatment with the MG132 proteasome inhibitor (to arrest degradation of ubiquitinated proteins). Cells were lysed and processed to measure CRBN ubiquitination by SDS-PAGE and immunoblot analysis using an anti-ubiquitin antibody. Cell proliferation studies were conducted in enalidomide-sensitive and refractory multiple myeloma cells. […] T-cell costimulation was measured in purified primary human T cells stimulated using immobilized anti-CD3 antibody in cell culture for 2 days, and cytokine secretion was measured by ELISA.

[4] = system: IRF4, BLIMP1, XBP1, PAX5, IgJ; assay: B and plasma cell transcription factor gene expression (RT-PCR), normal B cell differentiation culture; type: cell-based, human
Description: Differentiated B cells (see section 8.2.3) were harvested for total ribonucleic acid (RNA) preparation with a Qiacube RNA extraction instrument (Qiagen, Valencia, Calif.) using QIAGEN RNeasy mini spin-column kits. Purified RNA was reverse transcribed into cDNA with thermal cycler [MJ Research; Inc., St. Bruno, Quebec, Canada) using a reverse-transcriptase kit (Applied Biosystems). The gene expression assay was carried out using 7500 RT-PCR system (Applied Biosystems) in triplicate. A glyceraldehyde 3-phosphate dehydrogenase gene expression assay control was run for each sample and used as a normalization control. For each gene, samples within each experiment were normalized to 0.1% DMSO treatment only for that particular time point.

[5] = system: H929 cells; assay: H929 cell cycle (S-phase) and survivin, pRB, p27 expression; type: cell-based
[6] = system: CD83; assay: CD83 expression in B cell differentiation culture (flow cytometry); type: cell-based, human
Description: as §1
Using the same B cells in vitro differentiation system, the activity of the test compound on CD44 and CD83 expression in B cell differentiation was further investigated. Multicolor FITC-conjugated anti-CD20 mAb, PerCP Cy5.5-conjugated anti-CD44 mAb and PE-conjugated anti-CD83 mAb are used for day 4 and day 7 cells. The effect of the test compound was evaluated from 3 separate experiments representative of 3 donors.

[7] = system: IgG; assay: IgG production in normal B cell / PBMC differentiation cultures (ELISA); settings: Homo sapiens
Description: Step 1—B cell Activation—day 0 through day 4: Prepare fresh B cell cocktail by adding 50 μg/mL of human transferrin to B cell media. (Iscoves+10% PFBS, 1% P/S, and 5 μg/mL human insulin). […] Five milliliters (1×10^5/ml) of CD19+ B cell were added to each well of a 6 well flat-bottom plate (final cell count=5×10^5/well). Five L (lx)±compound/DMSO was added to each test well (0.1% final DMSO) and incubated at 37° C. for 4 days.
Step 2—Plasmablast Generation—day 4 through day 7: Cells were harvested and counted on the cell counter; an aliquot was removed for flow analysis, the remaining cells were washed with PBS. Prepare fresh B cell cocktail by adding 1 μg/ml of human transferrin to B cell media. […] Add B cell differentiation cocktail (final concentration): recombinant human IL-2 (20 U/mL), IL-10 (50 ng/mL), IL-15 (10 ng/mL), IL-6 (50 ng/mL) to cells. Add fresh B cell cocktail and transfer cells back to the original wells and bring volume back to 5 mL. Five L (1×)±compound/DMSO was added to each test well (0.1% final DMSO) and incubated at 37° C. for 4 days.
Supernatants (from section 8.2.3) were harvested and analyzed by ELISA for IgG and IgM production (ZeptoMetrix Corp. Buffalo, N.Y.).
The data was graphed using GraphPad Prism 5.0 software.
IgM and IgG were measured by ELISA.

[8] = system: BCL-6, IRF-4 and BLIMP-1; assay: Transcription factor protein expression by laser scanning cytometry, SLE patient PBMC; type: cell-based, human; settings: CD38+ plasmablast/plasma cells, Day 4 and Day 7 SLE patient PBMC
Description: Preparation Of Cytospin From Single Cell Suspension And Immunofluorescence Staining for iCyte: A cell suspension of not more than 0.5×10^6 cells/ml of 2% FBS-containing PBS was prepared. Up to 200 μl of this suspension was loaded in each cuvette and spinned at 800 rpm for 3 min. The cuvette and the paper were carefully detached without damaging the fresh cytospin and proceeded with either immediate fixation or drying. Unfixed cytospins were stored for max 2 days at room temperature. Cells on slides were fixed with increasing concentrations of EtOH and allowed to dry prior to staining. After blocking non-specific binding with normal serum (species same as secondary antibody), sections were incubated with the mixture of following monoclonal antibodies in a humidified chamber at cool room for overnight: (i) anti-human CD38 as plasmablast cell marker, and (ii) anti-BCL-6, IRF-4, BLIMP-1, PAX5 and XBP-1 for transcription factor proteins. After washings, slides were incubated for 1 hr at room temperature in dark with the mixture of secondary antibodies which were raised in different species (with two different fluorochromes, i.e., Alexa Fluor-488 and Alexa Fluor-633). The slides were then rinsed in PBS, counterstained with DAPI for 20 minutes at room temperature, coverslipped with anti-fade fluorescent mounting medium, and sealed with nail polish. The slides were stored in dark at 4° C. To exclude false positives produced by nonspecific binding of the secondary antibody, all of the tissues were treated in the same manner with buffer substituting for the primary antibody. The color of the antibody staining was observed and quantity was analyzed in the tissue sections using iCyte.

Compound: O=C1CC[C@H](N2Cc3c(OCc4ccc(CN5CCOCC5)cc4)cccc3C2=O)C(=O)N1 [Test compound, (S)-3-[4-(4-morphlin-4-ylmethylbenzyloxy)-1-oxo-1,3-dihydro-isoindo-2-yl]piperidine-2,6-dione]
- BLIMP-1 protein expression ([1]; Day 4, 20 nM): significantly decreased
- IRF-4 protein expression ([1]; Day 4, 20 nM): significantly decreased
- XBP-1 protein expression ([1]; Day 4, 20 nM): significantly decreased
- BCL-6 protein expression ([1]; Day 7, 20 nM): significantly increased
- BLIMP-1 gene expression [2]: 52.8 % of control
- IgJ gene expression [2]: 13.6 % of control
- XBP-1 gene expression [2]: 49.2 % of control
- EC50 [3]: ~0.29 nM
- B cell transcription factor PAX5 [4]: enhanced
- expression of plasma cell transcription factor BLIMP1 [4]: dose-dependently inhibited
- expression of plasma cell transcription factor RF4 [4]: dose-dependently inhibited
- expression of plasma cell transcription factor XBP1 [4]: dose-dependently inhibited
- BLIMP-1 gene expression ([4]; day 7, 20 nM, qRT-PCR): 14.3 % of control
- IRF-4 gene expression ([4]; day 7, 20 nM, qRT-PCR): 20.5 % of control
- IgJ gene expression ([4]; day 7, 20 nM, qRT-PCR): 31.5 % of control
- XBP-1 gene expression ([4]; day 7, 20 nM, qRT-PCR): 15.1 % of control
- decrease in cell cycle (S-phase) ([5]; 24 hours of treatment): 50%
- expression of cyclin-dependent kinase inhibitor p27 ([5]; 48 hours): increased expression
- expression of retinoblastoma protein (pRB) ([5]; 48 hours): decreased expression
- expression of survivin ([5]; 48 hours): decreased expression
- total CD83+ cell population [6]: significantly increased
- percentage of CD83+ cells ([6]; Day 4, 2 nM, DMSO 13.4%±2.4%): 24.1%
- percentage of CD83+ cells ([6]; Day 4, 20 nM, DMSO 13.4%±2.4%): 40.2%
- percentage of CD83+ cells ([6]; Day 4, 200 nM, DMSO 13.4%±2.4%): 49.5%
- percentage of CD83+ cells ([6]; Day 7, 2 nM, DMSO […]±3.3): 16.3%
- percentage of CD83+ cells ([6]; Day 7, 20 nM, DMSO […]±3.3): 36.1%
- percentage of CD83+ cells ([6]; Day 7, 200 nM, DMSO […]±3.3): 51.9%
- IC50 ([7]; B-cell, read-out: secreted IgG production IC50): 1.8 nM
- IC50 ([7]; PBMC, read-out: IgG IC50 (nM) Normal (n = 3)): 2.1 nM
- IC50 ([7]; read-out: IgG production IC50): 1.8 nM
- BCL-6 expression [8]: significantly increased
- BLIMP-1 expression [8]: inhibited
- RF-4 expression [8]: inhibited
- BCL-6 expression ([8]; listed as Compound I-S): increased
- BLIMP-1 expression ([8]; listed as Compound I-S): significantly reduced
- RF-4 expression ([8]; listed as Compound I-S): significantly reduced
